Laboratory results from patent EP0284180A1, “Prostaglandins E and anti ulcers containing same” (Kabushiki Kaisha Ueno Seiyaku Oyo Kenkyujo, priority 1987, dated 1988).
Where two headings read alike, the source gives them in different places.

Key:
[1] = tested on: indomethacin-induced ulcers; experiment: Indomethacin-induced ulcers (indomethacin ulcer preventing effect); assay type: in vivo, male rats of the Crj : Wistar strain; conditions: rats; for ED50: ulcer inhibition rate (Table 2); for Ulcer index (aver. ± SE): indomethacin 10 mg/kg oral ulcer, index 0-4
Description: (§1) As test samples, we used the PGE as obtained in Examples 2 to 52 as described herein, 13,14-dihydro-15-keto-PGE2 (produced by Funakoshi & Co.) being employed as a control reference.
(§2) Each group of test animals used consisted of 8 to 10 male rats of the Crj : Wistar strain, weighing 180 to 230 g. Test animals were fasted for 24 hours before the oral administration of the test samples; in the case of development of confinement-stress induced ulcers through immersion in water, 10 minutes after oral administration of the test specimens, the aminals were confined in a stress cage developed by Univ. of Tokyo, then immersed up to the ensiform process of sternum in water at 23°C for 4 hours and sacrificed; in the case of formation of indomethacin-induced ulcers, shortly after the materials were given, animals were given indomethacin orally at a dose of 10 mg/kg and sacrificed after 5 hours.
(§3) The stomacks were taken out, followed by fixation with 1 % formalin, and incised along the greater curvature to carry out investigation under an illuminated magnifier for ulceration. The degree and extent of lesion and ulcer were rated based on the ulceration index being classified into the following five numerical categories: • 0: normal, with no lesion detected; • 1: bleeding or erosion of mucosa; • 2: development of less than 5 small ulcers (not greater than 2 mm in diameter); • 3: generation of not less than 5 small ulcers or a large ulcer (not less than 2 mm in diameter); • 4: generation of not less than 2 large ulcers.
(§4) On the basis of the criteria that the rats with the ulceration index of not less than "2", the ulcer inhibition rate (EDso) was calculated from ulcer-generation ratio in the control and the ratio of the test specimens.

[2] = tested on: confinement-stress induced ulcers through immersion in water; experiment: Confinement-stress induced ulcers through immersion in water (hydrorestraint stress ulcer preventing effect); assay type: in vivo, male rats of the Crj : Wistar strain; conditions: Rattus norvegicus; for inhibition at 1 mg/kg: dosage 1 mg/kg; for inhibition at 3 mg/kg: dosage 3 mg/kg; for inhibition at 10 mg/kg: dosage 10 mg/kg; for inhibition at 5 mg/kg: dosage 5 mg/kg; for inhibition at 0.3 mg/kg: dosage 0.3 mg/kg
Description: as §1, §2, §3, §4

ileum = experiment: Intestinal constriction effect, isolated ileum in Magnus tube; parameters: species or system male Wister rat; conditions: rat ileum, constriction relative to acetylcholine, ED50 class
Description: A male Wister rat (of 250 - 300g in weight) was struck to death, and immediately its carotid artery was cut to dehematize. An ileum portion located about 10 cm from the cecum was extracted, and after its contents were washed away with a Tyrode liquid, a 1.5 - 2 cm long part of it was cut off and hung in a Magnus tube.
The constriction of the ileum was brought to rest for 15 - 20 minutes until the ileum was allowed to be stabilized, and subsequently the ileum was constricted with […]/mt of acetylcholine. After constructions of same magnitude were had two times, the material to be tested was cumulatively administered at one- minute intervals.
Constrictions with the material tested were expressed in terms of ratios, based on constriction per 10 g/m t of acetylcholine, and values for ED50 were determined. + : EDso < 10^-6 M ±: 10^-4 M ≦ ED50 ≦ 10^-6 M -: 10^-4 M < ED50

uterus = experiment: Uterine constriction, isolated uterus in Magnus tube; parameters: species or system female rat; conditions: rat uterus, constriction relative to 1 mU oxytocin = 100, EC50 class; read-out: Uterus constriction effect
Description: A female rat (of 150g in weight) was dehematized to death, and its uterus was taken out, which was cut to a length of 1.5 - 2.5 cm. The cut uterus was hung in a magnus tube. The uterus was constricted several times with 1 mU Oxytocin. After stable uterine movement was obtained, the material to be tested was independently administered. Constrictions with the material were expressed in terms of ratios based on constriction of 1 mU of oxytocin = 100, and values of EC50 were determined on the following standards. +:EC50 < 10^-7 M ±:10^-5 M ≦ EC50 ≦ 10^-7 M -: 10^-5 M < ECso

trachea = experiment: Tracheal relaxation, isolated tracheal rings constricted with histamine; parameters: species or system male gunea pig; conditions: guinea pig trachea, inhibition of constriction under histamine 5.4 x 10^-4 M, IC50 class; read-out: Tracheal relaxation effect
Description: A male gunea pig (of about 300 g in weight) was struck to death, and its artery was cut to dehematize. Its trachea, after having been extracted, was cut open lengthwise on the opposite side to the trachea smooth muscle, and seven tracheal rings were connected by string in a chain-like pattern, same being hung in a Magnus tube.
Trachea was brought to rest for 60 - 90 minutes and until tracheal equilibrium was reached. Thereafter, 5.4 x 10 ^-4 M of histamine was administered in such manner that it was cumulatively administered at 6 minutes' intervals after a constriction peak was reached. Tracheal relaxation with the material tested was expressed in terms of ratio of constrictional inhibition under histamine administering, and values for IC50 were determined. + : IC50 < 10^-7 M ± : 10^-5 M ≦ IC50 ≦ 10^-7 M -: 10^-5 M < IC50

[3] = Rattus norvegicus, indomethacin ulcer, oral, dosage 3 mg/kg, read-out: Inhibition factor (%)
[4] = Rattus norvegicus, indomethacin ulcer, oral, dosage 10 mg/kg, read-out: Inhibition factor (%)
[5] = Rattus norvegicus, indomethacin ulcer, oral
[6] = stress ulcer, rats, oral, read-out: Inhibition factor (%)
[7] = stress ulcer, rats, oral, ulcer inhibition rate, ulceration index not less than 2 counted (Table 1), read-out: ED50
[8] = Rattus norvegicus, indomethacin ulcer, oral, dosage 20 mg/kg, read-out: Inhibition factor (%)
[9] = Rattus norvegicus, indomethacin ulcer, oral, dosage 1 mg/kg, read-out: Inhibition factor (%)
[10] = po, hydrorestraint stress-ulcer preventing effect, procedure of Test Example 1 (Table 3), read-out: Ulcer inhibiting effect ED50

CCCCCC(=O)CC[C@H]1[C@H](O)CC(=O)[C@@H]1CC(=O)CCCCC(=O)OCC (racemic) [(11)]
inhibition at 3 mg/kg [1, 3]: 0% | inhibition at 10 mg/kg [1, 4]: 50% | ED50 [1, 5]: 10 mg/kg | Ulcer index (aver. ± SE) ([1]; dosage 3 mg/kg): 2.6±0.3 | Ulcer index (aver. ± SE) ([1]; dosage 10 mg/kg): 2.0±0.2 | inhibition at 1 mg/kg [2, 6]: 25% | inhibition at 3 mg/kg [2, 6]: 57.1% | inhibition at 10 mg/kg [2, 6]: 85.7% | ED50 [2, 7]: 2.4 mg/kg

CCCCCC(=O)CC[C@H]1[C@H](O)CC(=O)[C@@H]1C/C=C\CCCC(=O)O [(1)]
inhibition at 20 mg/kg [1, 8]: 4% | ED50 [1, 5]: > 20 mg/kg | Ulcer index (aver. ± SE) ([1]; dosage 20 mg/kg): 2.4±0.4 | inhibition at 20 mg/kg ([2]; stress ulcer, rats, oral, dosage 20 mg/kg, read-out: Inhibition factor (%)): 6.3% | ED50 [2, 7]: > 20 mg/kg

CCCCCC(=O)CC[C@H]1[C@H](O)CC(=O)[C@@H]1C/C=C\CCCC(=O)OC [(2)]
inhibition at 3 mg/kg [1, 3]: 30% | inhibition at 6 mg/kg ([1]; Rattus norvegicus, indomethacin ulcer, oral, dosage 6 mg/kg, read-out: Inhibition factor (%)): 50% | inhibition at 20 mg/kg [1, 8]: 100% | ED50 [1, 5]: 6 mg/kg | Ulcer index (aver. ± SE) ([1]; dosage 3 mg/kg): 1.9±0.4 | Ulcer index (aver. ± SE) ([1]; dosage 6 mg/kg): 1.4±0.3 | Ulcer index (aver. ± SE) ([1]; dosage 20 mg/kg): 0.4±0.2 | inhibition at 5 mg/kg [2, 6]: 58.3% | inhibition at 15 mg/kg ([2]; stress ulcer, rats, oral, dosage 15 mg/kg, read-out: Inhibition factor (%)): 87.5% | ED50 [2, 7]: 4 mg/kg

CCCCCC(=O)CC[C@H]1[C@H](O)CC(=O)[C@@H]1C/C=C\CCCC(=O)OCC [(3)]
inhibition at 3 mg/kg [1, 3]: 42.9% | inhibition at 10 mg/kg [1, 4]: 71.4% | ED50 [1, 5]: 4.4 mg/kg | Ulcer index (aver. ± SE) ([1]; dosage 3 mg/kg): 1.7±0.4 | Ulcer index (aver. ± SE) ([1]; dosage 10 mg/kg): 1.0±0.3 | inhibition at 1 mg/kg [2, 6]: 25% | inhibition at 3 mg/kg [2, 6]: 86.1% | inhibition at 10 mg/kg [2, 6]: 100% | ED50 [2, 7]: 1.5 mg/kg

CCCCCC(=O)CC[C@H]1[C@H](O)CC(=O)[C@@H]1C/C=C\CCCC(=O)OCCC [(4)]
inhibition at 1 mg/kg [2, 6]: 16.7% | inhibition at 5 mg/kg [2, 6]: 44.4% | ED50 [2, 7]: 7 mg/kg

CCCCCC(=O)CC[C@H]1[C@H](O)CC(=O)[C@@H]1C/C=C\CCCC(=O)OC(C)C [(5)]
inhibition at 1 mg/kg [2, 6]: 14.3% | inhibition at 5 mg/kg [2, 6]: 44% | ED50 [2, 7]: 6.5 mg/kg

CCCCCC(=O)CC[C@H]1[C@H](O)CC(=O)[C@@H]1CCCCCCC(=O)OC [(6)]
inhibition at 3 mg/kg [2, 6]: 28% | inhibition at 10 mg/kg [2, 6]: 72.2% | ED50 [2, 7]: 5.5 mg/kg

CCCCCC(=O)CC[C@H]1[C@H](O)CC(=O)[C@@H]1CCCCCCC(=O)OCC [(7)]
inhibition at 3 mg/kg [2, 6]: 37.5% | inhibition at 10 mg/kg [2, 6]: 75% | ED50 [2, 7]: 4.5 mg/kg

CCCCCC(=O)CC[C@H]1[C@H](O)CC(=O)[C@@H]1CC(=O)CCCCC(=O)OC [(8)]
inhibition at 1 mg/kg [1, 9]: 14.3% | inhibition at 3 mg/kg [1, 3]: 42.9% | ED50 [1, 5]: 3.8 mg/kg | Ulcer index (aver. ± SE) ([1]; dosage 1 mg/kg): 2.3±0.4 | Ulcer index (aver. ± SE) ([1]; dosage 3 mg/kg): 1.7±0.3 | inhibition at 0.3 mg/kg [2, 6]: 30.6% | inhibition at 1 mg/kg [2, 6]: 62.5% | ED50 [2, 7]: 0.6 mg/kg

CCCCCC(=O)CC[C@H]1[C@H](O)CC(=O)[C@@H]1CC(=O)CCCCC(=O)OCC [(9)]
inhibition at 1 mg/kg [1, 9]: 37.5% | inhibition at 3 mg/kg [1, 3]: 50.5% | ED50 [1, 5]: 3 mg/kg | Ulcer index (aver. ± SE) ([1]; dosage 1 mg/kg): 2.1±0.3 | Ulcer index (aver. ± SE) ([1]; dosage 3 mg/kg): 1.5±0.3 | inhibition at 0.3 mg/kg [2, 6]: 37.5% | inhibition at 1 mg/kg [2, 6]: 75% | ED50 [2, 7]: 0.45 mg/kg

CCCCCC(=O)CC[C@H]1[C@H](O)CC(=O)[C@@H]1CC(=O)CCCCC(=O)OCCCC [(10)]
inhibition at 1 mg/kg [2, 6]: 25.5% | inhibition at 3 mg/kg [2, 6]: 78.4% | ED50 [2, 7]: 1.5 mg/kg

CCOC(=O)CCCCC(=O)C[C@H]1C(=O)C[C@@H](O)[C@@H]1CCC(=O)CCCC(C)C [(36)]
inhibition at 0.3 mg/kg [2, 6]: 22.6% | inhibition at 1 mg/kg [2, 6]: 57% | ED50 [2, 7]: 0.8 mg/kg

CCCCCCC(=O)CC[C@H]1[C@H](O)CC(=O)[C@@H]1CC(=O)CCCCC(=O)OCC [(37)]
inhibition at 1 mg/kg [2, 6]: 8.1% | inhibition at 3 mg/kg [2, 6]: 45.9% | inhibition at 6 mg/kg ([2]; stress ulcer, rats, oral, dosage 6 mg/kg, read-out: Inhibition factor (%)): 79.7% | ED50 [2, 7]: 3 mg/kg

CCCCCC(=O)CC[C@H]1[C@H](C)CC(=O)[C@@H]1CC(=O)CCCCC(=O)OC [(38)]
inhibition at 0.3 mg/kg [2, 6]: 8.1% | inhibition at 1 mg/kg [2, 6]: 45.9% | inhibition at 3 mg/kg [2, 6]: 79.7% | ED50 [2, 7]: 1.5 mg/kg

CCCCCC(=O)CC[C@H]1[C@H](C)CC(=O)[C@@H]1CC(=O)CCCCC(=O)OCC [(39)]
inhibition at 0.3 mg/kg [2, 6]: 30.2% | inhibition at 1 mg/kg [2, 6]: 77.5% | inhibition at 3 mg/kg [2, 6]: 85.3% | ED50 [2, 7]: 0.5 mg/kg

CCCCC[C@H](O)/C=C/[C@H]1[C@H](O)CC(=O)[C@@H]1C/C=C\CCCC(=O)O [A]
EC50 (ileum): < 1000 nM | EC50 (uterus): < 100 nM | IC50 (trachea): < 100 nM | ED50 [2, 10]: 0.5 mg/kg

CCCCC[C@H](O)/C=C/[C@H]1[C@H](O)CC(=O)[C@@H]1C/C=C\CCCC(=O)OCC [B]
EC50 (ileum): < 1000 nM | EC50 (uterus): 100 to 10000 nM | IC50 (trachea): < 100 nM | ED50 [2, 10]: 0.4 mg/kg
